Source: ChEMBL document CHEMBL4715889, “Novel amide and imidazole compounds as potent hematopoietic prostaglandin D synthase inhibitors” (Bioorg Med Chem Lett, 2021)
≈ marks a conversion by molar mass, not a printed value.

Legend:
[1] = biological target: T1, Hematopoietic prostaglandin D synthase (Homo sapiens, UniProt O60760); experiment: Inhibition of HPGDS (unknown origin) by fluorescence polarization assay
[2] = biological target: T1, Hematopoietic prostaglandin D synthase; experiment: Binding affinity to HPGDS (unknown origin) assessed as change in melting temperature by thermal shift assay
[3] = biological target: T1, Hematopoietic prostaglandin D synthase; experiment: Binding affinity to HPGDS (unknown origin) assessed as change in melting temperature in presence of GSH by thermal shift assay
[4] = biological target: T1, Hematopoietic prostaglandin D synthase; experiment: Inhibition of HPGDS (unknown origin) assessed as reduction in reduction in GSTase activity relative to control; set-up: concentration or dose not given beside the values; details: concentration not given here
[5] = biological target: T1, Hematopoietic prostaglandin D synthase; experiment: Inhibition of HPGDS (unknown origin) assessed as reduction in reduction in LPS-induced PGD2 level by ELISA
[6] = biological target: T1, Hematopoietic prostaglandin D synthase; experiment: Competitive inhibition of human HPGDS using PGH2 as substrate
[7] = Aqueous solubility of compound at pH 7.4; assay type: physicochemical
[8] = Half life in human liver microsomes; assay type: ADME, Microsome

T1 sequence (O60760 whole entry): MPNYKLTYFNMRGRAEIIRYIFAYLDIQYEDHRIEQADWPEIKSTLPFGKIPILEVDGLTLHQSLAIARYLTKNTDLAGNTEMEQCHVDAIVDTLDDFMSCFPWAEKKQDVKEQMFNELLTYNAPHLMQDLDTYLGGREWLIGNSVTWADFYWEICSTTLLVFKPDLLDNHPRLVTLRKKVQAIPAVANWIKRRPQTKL

| Compound | IC50 [1] | ΔTm [2] | ΔTm [3] | inhibition [4] | IC50 [5] | Ki [6] | solubility [7] | half-life [8] |
| --- | --- | --- | --- | --- | --- | --- | --- | --- |
| c1ccc(-c2ccc(-c3cnc(-c4ccccc4)[nH]3)cn2)cc1 | 31.6 nM | 3.2 °C | 4.4 °C | 85.2% | 40.5 nM | – | – | – |
| c1ccc(-c2ncc(-c3cnc(-c4ccccc4)[nH]3)cn2)cc1 | 8.88 nM | 3.6 °C | 3.8 °C | 94.5% | 59 nM | – | – | – |
| c1ccc(C(OC2CCN(CCCc3nnn[nH]3)CC2)c2ccccc2)cc1 | – | – | – | – | – | 5000 nM | – | – |
| CC(C)(O)c1nc(-c2cccc(-c3ncc(-c4ccc(-c5ccccc5)nc4)[nH]3)c2)no1 | 35.4 nM | 4.3 °C | 5.2 °C | 83.5% | 72 nM | – | – | – |
| CC(C)(O)c1nc(-c2cccc(-c3ncc(-c4cnc(-c5ccccn5)nc4)[nH]3)c2)no1 | 3200 nM | 0.4 °C | 0.6 °C | 25.5% | – | – | 17.5 µM (≈ 7.45 µg/mL) | – |
| CC(C)(O)c1nc(-c2cccc(-c3ncc(-c4cnc(-c5ccccc5)nc4)[nH]3)c2)no1 | 5.88 nM | 6.9 °C | 7.1 °C | 92.1% | 20.7 nM | – | 3.3 µM (≈ 1.4 µg/mL) | > 1 h |
| Cn1c(-c2cnc(-c3ccccc3)nc2)cnc1-c1ccccc1 | 63.1 nM | 3.1 °C | 3.4 °C | 38.4% | 723 nM | – | – | – |
| O=C(NCc1ccccc1)c1ccc(-c2ccccc2)nc1 | 122 nM | 0.3 °C | 3 °C | 40.4% | 1230 nM | – | – | – |
| O=C(NCc1ccccc1)c1ccc(-c2ccccn2)nc1 | 80.7 nM | 0.1 °C | 2.8 °C | 19.2% | 453 nM | – | – | – |
| CC(C)(O)c1nc(-c2cccc(-c3ncc(-c4ccc(-c5ccccn5)nc4)[nH]3)c2)no1 | 78.6 nM | 4.8 °C | 5.4 °C | 76.1% | 23.4 nM | – | – | – |
| CC(C)(O)c1nc(-c2cccc(CNC(=O)c3cnc(-c4ccccc4)nc3)c2)no1 | 7.18 nM | 0.4 °C | 4.95 °C | 83.9% | 9.86 nM | – | – | – |
| c1ccc(-c2ncc(-c3ccc(-c4ccccn4)nc3)[nH]2)cc1 | 37.2 nM | 4.2 °C | 5.2 °C | 73.5% | 44.5 nM | – | – | – |
| O=C(NCc1ccccc1)c1cnc(-c2ccccn2)nc1 | 7.14 nM | 0.2 °C | 4.2 °C | 71.3% | 35.7 nM | – | – | – |

The remaining molecules from weak to strong by IC50 [1], led by results:

| IC50 [1] | ΔTm [2] | ΔTm [3] | inhibition [4] | IC50 [5] | Ki [6] | solubility [7] | half-life [8] | Compound |
| --- | --- | --- | --- | --- | --- | --- | --- | --- |
| 1770 nM | 0.2 °C | 0.6 °C | 18.2% | 5060 nM | – | – | – | c1ccc(-c2ncc(-c3cnc(-c4ccccn4)nc3)[nH]2)cc1 |
| 257 nM | 2.1 °C | 2.2 °C | 29.5% | > 5000 nM | – | – | – | c1ccc(-c2ncc(-c3cnc(-c4cccnc4)s3)cn2)cc1 |
| 55.5 nM | 0.1 °C | 2.8 °C | 47.2% | 328 nM | – | – | – | CC(C)(O)c1nc(-c2cccc(CNC(=O)c3ccc(-c4ccccn4)nc3)c2)no1 |
| 30.8 nM | 4.3 °C | 4.5 °C | 81.5% | 3740 nM | – | – | – | Cc1nc(-c2ccccc2)[nH]c1-c1cnc(-c2ccccc2)nc1 |
| 27.7 nM | 0.2 °C | 3.3 °C | 62.4% | 808 nM | – | – | – | CC(C)(O)c1nc(-c2cccc(CNC(=O)c3ccc(-c4ccccc4)nc3)c2)no1 |
| 13.2 nM | 4.9 °C | 5.7 °C | 65.1% | 12.5 nM | – | – | – | c1ccc(-c2ncc(-c3cnc(-c4cccnc4)[nH]3)cn2)cc1 |
| 11.7 nM | 0.4 °C | 4.6 °C | 82.5% | 23.9 nM | – | – | – | O=C(NCc1ccccc1)c1cnc(-c2ccccc2)nc1 |
| 7.48 nM | 0.5 °C | 5.1 °C | 90.9% | 11.6 nM | – | – | – | CC(C)(O)c1nc(-c2cccc(CNC(=O)c3cnc(-c4ccccn4)nc3)c2)no1 |
